US11332439B2, “Anthocyanin complex synthesized from date palm leaf extract” (UNITED ARAB EMIRATES UNIVERSITY, priority 2020, dated 2022)

Assay: Antioxidant activity using DPPH as a free radical (Brand-Williams method)
Format: biochemical
Conditions: for antiradical power (ARP): ARP=I/EC50, larger ARP indicates a more efficient antioxidant; for time to reach steady state in reaction with DPPH*: reaction kinetics, absorbance at 515 nm, methanol
Protocol: Antioxidant activity of the co-pigmented anthocyanin complex was assessed using DPPH as a free radical according to the Brand-Williams method. Activity of the co-pigmented anthocyanin complex was compared with two known antioxidants, ascorbic acid and Trolox. Concentrations tested are expressed as moles of antioxidant per mole DPPH. Briefly, an antioxidant solution in methanol (0.1 ml) was added to 3.9 ml of a 6×10^−5 mol/L methanol DPPH* solution. The decrease in absorbance was determined at 515 nm at 0 min, 1 min, and every 15 min until the reaction reached a plateau. The extract initial DPPH* concentration (CDPPH) in the reaction medium was calculated from a calibration curve with the equation Abs515 nm=0.0765×(CDPPH)+0.1118 as determined by linear regression (R2=0.9994). For each antioxidant concentration tested, the reaction kinetics were plotted (see FIGS. 6A-6C). From these graphs, the percentage of DPPH* remaining at the steady state was determined, and the values were transferred onto another graph showing percentage of residual DPPH* at the steady state as a function of the molar ratio of antioxidant to DPPH*. Antiradical activity was defined as the amount of antioxidant necessary to decrease the initial DPPH* concentration by 50% (Efficient Concentration=EC50 (mol/L)). The results were analyzed in terms of antiradical power (ARP), with a larger ARP indicating a more efficient antioxidant (ARP=I/EC50 AO/(mol/L) DPPH*).

Row | SMILES | antiradical power (ARP) | time to reach steady state in reaction with DPPH*
1 | O=C1O[C@H]([C@@H](O)CO)C(O)=C1O [ascorbic acid] | 0.329 | approximately 30 minutes
2 | Cc1c(C)c2c(c(C)c1O)CCC(C)(C(=O)O)O2 (stereo not shown) [Trolox] | 4.65 | less than a minute
